# Several values for one entry are separate records, joined by “and”; a condition that tells them apart may be missing. Identical values can stand only once.
# System: KB tumor bearing mice
# Assay: In vivo biodistribution in KB tumor bearing mice
# Conditions: for Biodistribution, Tumor: KB tumor; for Biodistribution, Tumor / Biodistribution, Blood / Biodistribution, Bone / Biodistribution, Brain / Biodistribution, Fat / Biodistribution, Heart / Biodistribution, Intestine / Biodistribution, Kidney / Biodistribution, Liver / Biodistribution, Lungs / Biodistribution, Muscle / Biodistribution, Pancreas / Biodistribution, Skin / Biodistribution, Spleen / Biodistribution, Stomach: n = 4
# Method: The in vivo behavior of each ^55Co-labeled folate was evaluated in KB-tumor bearing mice via biodistribution studies and PET/CT imaging. The biodistribution data are presented in Table 3 and Table 4, and are reported as the percent of injected activity per gram of tissue (% IA/g). Statistically significant differences in renal uptake between the two ^55Co-labeled compounds were observed. At 4 h post-injection, the radiofolates had uptake values in the kidneys of 36% ± 7% IA/g for [^55Co]Co-cm10 and 53% ± 12% IA/g for [^55Co]Co-rf42. […] Lower renal uptake for [^55Co]Co-cm10 may in part be due to slightly higher lipophilicity (supported by its larger molecular weight and a longer HPLC-retention time) in comparison to [^55Co]Co-rf42. […] Despite the differences in blood retention, tumor uptake for both radiofolates was similar with values of 17% ± 2% IA/g for [^55Co]Co-cm10 and 17% ± 4% IA/g for [^55Co]Co-rf42 at 4 h post-injection. […] The PET/CT images (presented as maximal intensity projections) confirm the biodistribution findings, highlighting the kidneys and tumors as the tissues with the highest activity uptake (Figure 5).
# All animal studies were performed using a protocol approved by the Institutional Animal Care and Use Committee at the University of Alabama at Birmingham and were in compliance with national animal welfare policies and guidelines. Female athymic nude mice (Charles River, Wilmington, MA, USA), age 5 weeks, were implanted with KB cells via subcutaneous injection of 5 × 10^6 cells in 100 μL of PBS in the right shoulder. Tumors were allowed to grow for 12 days, during which time mice were fed Teklad Folic Acid Deficient Diet (Envigo, Huntingdon, United Kingdom).
# Biodistribution and imaging studies for [^55Co]Co-cm10 and [^55Co]Co-rf42 were performed at 4 h and 24 h post-injection on groups of four mice. An additional cohort of mice was co-injected with a blocking dose of folic acid (100 μg), and biodistribution was performed at 4 h post-injection. At 2 h, mice were induced using 3% isoflurane and a 50 μL blood sample was taken retro-orbitally to monitor blood activity at an early time point.
# The radiofolates were prepared as described with final molar activities of 835.5 MBq/μmol (22.6 mCi/μmol) for [^55Co]Co-cm10 and 957.6 MBq/μmol (25.9 mCi/μmol) for [^55Co]Co-rf42 in 60 μL reaction volume. Injections (100 µL) were prepared by dilution of the radiofolates in sterile saline (pH = 7). The final [^55Co]Co-cm10 injection contained 1,924 kBq (52 μCi) and 2.3 nmol cm10 and the final [^55Co]Co-rf42 injection contained 2,479 kBq […] and 2.4 nmol rf42. Blocking doses contained an additional 100 µg of folic acid and were prepared by diluting the radiofolates with 1 μg/μL folic acid in sterile saline (pH adjusted to 7). Mice were euthanized humanely by cervical dislocation following anaesthetization with 3% isoflurane, and their organs were collected, weighed and counted using an automatic gamma counter.
# [1] = 4 h, co-administration of 100 µg folic acid blocking dose
structure (smiles),measurement,setting,value
Nc1nc2ncc(CNc3ccc(C(=O)N[C@@H](CCC(=O)NC(CCCCNC(=O)CN4CCN(CC(=O)O)CCN(CC(=O)O)CCN(CC(=O)O)CC4)C(=O)NC(CCCCNC(=O)CCCc4ccc(I)cc4)C(=O)O)C(=O)O)cc3)nc2c(=O)[nH]1.[55Co] (stereo partly shown) [[^55Co]Co-cm10],"Biodistribution, Tumor",[1],8 ± 4 % IA/g
same,"Biodistribution, Blood",[1],17 ± 3 % IA/g
same,"Biodistribution, Bone",[1],2.2 ± 0.8 % IA/g
same,"Biodistribution, Brain",[1],0.6 ± 0.2 % IA/g
same,"Biodistribution, Fat",[1],4 ± 1 % IA/g
same,"Biodistribution, Heart",[1],4.2 ± 0.7 % IA/g
same,"Biodistribution, Intestine",[1],2.3 ± 0.4 % IA/g
same,"Biodistribution, Kidney",[1],16 ± 4 % IA/g
same,"Biodistribution, Liver",[1],3.5 ± 0.5 % IA/g
same,"Biodistribution, Lungs",[1],7 ± 3 % IA/g
same,"Biodistribution, Muscle",[1],2.1 ± 0.7 % IA/g
same,"Biodistribution, Pancreas",[1],2.4 ± 0.7 % IA/g
same,"Biodistribution, Skin",[1],5 ± 1 % IA/g
same,"Biodistribution, Spleen",[1],2.2 ± 0.4 % IA/g
same,"Biodistribution, Stomach",[1],1.5 ± 0.1 % IA/g
same,"Biodistribution, Blood",4 h post-injection,14 % IA/g and 13.8 ± 0.8 % IA/g
same,"Biodistribution, Bone",4 h post-injection,1.8 ± 0.6 % IA/g
same,"Biodistribution, Brain",4 h post-injection,0.8 ± 0.1 % IA/g
same,"Biodistribution, Fat",4 h post-injection,5 ± 1 % IA/g
same,"Biodistribution, Heart",4 h post-injection,4.7 ± 0.6 % IA/g
same,"Biodistribution, Intestine",4 h post-injection,1.9 ± 0.3 % IA/g
same,"Biodistribution, Liver",4 h post-injection,3.7 ± 0.6 % IA/g
same,"Biodistribution, Lungs",4 h post-injection,5.4 ± 0.6 % IA/g
same,"Biodistribution, Muscle",4 h post-injection,2.4 ± 0.9 % IA/g
same,"Biodistribution, Pancreas",4 h post-injection,2.4 ± 0.7 % IA/g
same,"Biodistribution, Skin",4 h post-injection,6 ± 2 % IA/g
same,"Biodistribution, Spleen",4 h post-injection,2.0 ± 0.4 % IA/g
same,"Biodistribution, Stomach",4 h post-injection,0.8 ± 0.2 % IA/g
same,"Biodistribution, Blood",24 h post-injection,2.6 ± 0.3 % IA/g
same,"Biodistribution, Bone",24 h post-injection,0.8 ± 0.2 % IA/g
same,"Biodistribution, Brain",24 h post-injection,0.45 ± 0.08 % IA/g
same,"Biodistribution, Fat",24 h post-injection,3 ± 2 % IA/g
same,"Biodistribution, Heart",24 h post-injection,1.7 ± 0.2 % IA/g
same,"Biodistribution, Intestine",24 h post-injection,0.92 ± 0.08 % IA/g
same,"Biodistribution, Kidney",24 h post-injection,30 ± 2 % IA/g
same,"Biodistribution, Liver",24 h post-injection,1.9 ± 0.3 % IA/g
same,"Biodistribution, Lungs",24 h post-injection,1.9 ± 0.3 % IA/g
same,"Biodistribution, Muscle",24 h post-injection,1.3 ± 0.3 % IA/g
same,"Biodistribution, Pancreas",24 h post-injection,1.4 ± 0.2 % IA/g
same,"Biodistribution, Skin",24 h post-injection,7 ± 3 % IA/g
same,"Biodistribution, Spleen",24 h post-injection,1.0 ± 0.1 % IA/g
same,"Biodistribution, Stomach",24 h post-injection,0.34 ± 0.09 % IA/g
Nc1nc2ncc(CNc3ccc(C(=O)N[C@@H](CCC(=O)NC(CCCCNC(=O)CCC(C(=O)O)N4CCN(CC(=O)O)CCN(CC(=O)O)CC4)C(=O)NC(CCCCNC(=O)CCCc4ccc(I)cc4)C(=O)O)C(=O)O)cc3)nc2c(=O)[nH]1.[55Co] (stereo partly shown) [[^55Co]Co-rf42],"Biodistribution, Tumor",[1],7 ± 2 % IA/g
same,"Biodistribution, Blood",[1],15 ± 2 % IA/g
same,"Biodistribution, Bone",[1],1.7 ± 0.5 % IA/g
same,"Biodistribution, Brain",[1],0.5 ± 0.1 % IA/g
same,"Biodistribution, Fat",[1],2.7 ± 0.6 % IA/g
same,"Biodistribution, Heart",[1],4 ± 1 % IA/g
same,"Biodistribution, Intestine",[1],2.2 ± 0.3 % IA/g
same,"Biodistribution, Kidney",[1],12 ± 4 % IA/g
same,"Biodistribution, Liver",[1],4 ± 1 % IA/g
same,"Biodistribution, Lungs",[1],5.6 ± 0.3 % IA/g
same,"Biodistribution, Muscle",[1],1.5 ± 0.3 % IA/g
same,"Biodistribution, Pancreas",[1],2.2 ± 0.2 % IA/g
same,"Biodistribution, Skin",[1],3.5 ± 0.8 % IA/g
same,"Biodistribution, Spleen",[1],2.1 ± 0.3 % IA/g
same,"Biodistribution, Stomach",[1],1.1 ± 0.5 % IA/g
same,"Biodistribution, Blood",4 h post-injection,8 % IA/g and 8 ± 3 % IA/g
same,"Biodistribution, Bone",4 h post-injection,1.3 ± 0.2 % IA/g
same,"Biodistribution, Brain",4 h post-injection,0.7 ± 0.1 % IA/g
same,"Biodistribution, Fat",4 h post-injection,3.2 ± 0.9 % IA/g
same,"Biodistribution, Heart",4 h post-injection,2.9 ± 0.4 % IA/g
same,"Biodistribution, Intestine",4 h post-injection,2.2 ± 0.5 % IA/g
same,"Biodistribution, Liver",4 h post-injection,3.8 ± 0.6 % IA/g
same,"Biodistribution, Lungs",4 h post-injection,4 ± 1 % IA/g
same,"Biodistribution, Muscle",4 h post-injection,1.6 ± 0.4 % IA/g
same,"Biodistribution, Pancreas",4 h post-injection,2.4 ± 0.5 % IA/g
same,"Biodistribution, Skin",4 h post-injection,8 ± 1 % IA/g
same,"Biodistribution, Spleen",4 h post-injection,1.5 ± 0.3 % IA/g
same,"Biodistribution, Stomach",4 h post-injection,0.8 ± 0.4 % IA/g
same,"Biodistribution, Blood",24 h post-injection,1.0 ± 0.4 % IA/g
same,"Biodistribution, Bone",24 h post-injection,0.6 ± 0.2 % IA/g
same,"Biodistribution, Brain",24 h post-injection,0.4 ± 0.1 % IA/g
same,"Biodistribution, Fat",24 h post-injection,2.7 ± 0.2 % IA/g
same,"Biodistribution, Heart",24 h post-injection,2.0 ± 0.4 % IA/g
same,"Biodistribution, Intestine",24 h post-injection,0.8 ± 0.2 % IA/g
same,"Biodistribution, Kidney",24 h post-injection,46 ± 14 % IA/g
same,"Biodistribution, Liver",24 h post-injection,2.9 ± 0.5 % IA/g
same,"Biodistribution, Lungs",24 h post-injection,1.5 ± 0.4 % IA/g
same,"Biodistribution, Muscle",24 h post-injection,1.2 ± 0.6 % IA/g
same,"Biodistribution, Pancreas",24 h post-injection,1.9 ± 0.3 % IA/g
same,"Biodistribution, Skin",24 h post-injection,6 ± 2 % IA/g
same,"Biodistribution, Spleen",24 h post-injection,0.6 ± 0.2 % IA/g
same,"Biodistribution, Stomach",24 h post-injection,0.5 ± 0.2 % IA/g
same,tumor-to-kidney ratio,"compared with [^64Cu]Cu-rf42 and [^68Ga]Ga-rf42, Figure 6",lowest

# Reference: PMC6958329, “New ^55Co-labeled Albumin-Binding Folate Derivatives as Potential PET Agents for Folate Receptor Imaging” (Pharmaceuticals, 2019)
